Measured values: patent US20090291083A1, “BARB4 TARGET, ANTIBODY DESIGNATED BARB4, BARB4 RELATED ANTIBODIES, AND METHODS OF MAKING AND USING SAME” (PATRYS LIMITED, priority 2008, published 2009)
Read-outs that look alike come from different tables or passages of the source.

Legend:
Test in all cases: MTT cell proliferation assay (Table 2)
Assay type in all cases: cell-based, human
BxPC-3 = test system: BxPC-3
Protocol: (§1) BARB4 was also evaluated for inhibition of proliferation of other cancer cell lines, including BxPC-3, COLO 205, H460, MDA-MB-231 and MIAPaCa-2 cells, as well as HT-29, HCT-116, BxPC-3, PANC-1, A549, PC-3 and HCT116 cells. In brief, various human cancer cell lines obtained from the American Type Culture Collection (ATCC) were established using standard in vitro culture methods and ATCC recommended media in 175 cm2 BD tissue culture treated flasks. In particular, MDAMB-231 cultures were incubated in a humidified 37° C., 100% air incubator, and BxPC-3, COLO 205, H460 and MIAPaCa-2 cultures were incubated in a humidified 37° C., 5% CO2, 95% air incubator. Cultures were sub-cultivated regularly to maintain log phase growth. All cell lines were brought up from cryopreservation using the original recommended ATCC media type and supplements. Cell line specific seeding densities were based on historical data from MIR Preclinical Services for growth over a 72 hr period.
(§2) On the day of IC50 plate seeding, the adherent cells were removed from the flasks for each cell line using trypsin EDTA, 1× (Cell Gro #25-053-CI). Trypsin was deactivated using complete media and the cells were pooled (each line done separately). The pooled cells in complete media were counted using trypan blue exclusion with a Neubauer Bright-Line® hemacytometer. The percent viability for each cell line was as follows:
(§3) Based on live cell counts, each suspension was then diluted in complete media (containing required supplements) to achieve the desired seeding density for each cell line. Once seeded, the cells were allowed to attach to the plates overnight and then treated with BA4 or cisplatin 24 hr post-seeding.
(§4) BARB4 was serially diluted 1:2 (2× final conc. in dilution reservoir=1600 μg/ml) in media to achieve a final 800 μg/ml starting concentration in the top dosage wells of the treatment plate by diluting 1:2 when transferred from the reservoir to the treatment plate. Antibody was added to columns 1 through 10 of the treatment plate. Column 11 was for cells+media only control and column 12 was for a media only blank. Cisplatin (positive control) was manufactured by Sigma (# M4394, lot 087K1349) and supplied as a fine, dark yellow powder, in an amber vial, stored at room temperature and housed in a covered box to prevent exposure to light. Cisplatin was previously dissolved in 0.9% saline to make a clear, colorless 4 mM stock solution, aliquoted and frozen at −20° C. Frozen aliquots were quickly thawed by holding the tubes in hand, placed on wet ice and diluted (2× conc. dilution reservoir) to achieve a final 1 mM starting concentration in the top dosage wells of the treatment plate (diluted 1:2 when transferred from the dilution reservoir to the treatment plate). Serial dilutions of 1:4 were made from wells 1 through 10 of the dilution reservoir prior to transfer to the treatment plate.
(§5) The BARB4 stock solution (10.5 mg/ml) was prepared by dilution in complete media according to the table below for a final starting treatment concentration of 800 μg/ml. The 4 mM stock solution of cisplatin in 0.9% saline was diluted in complete media for a final starting treatment concentration of 1 mM.
(§6) Cells were exposed to BARB4 or cisplatin for a 24 hr period. The plates were incubated overnight at 37° C. At 24 hr and 48 hr post-treatment, the MTT assay was performed as described below.
(§7) The anti-proliferative activity of BARB4 and cisplatin was evaluated using the MTT cell proliferation assay (ATCC catalog #30-1010K). The assay is based on the reduction of yellow tetrazolium MTT (3-(4,5-dimethylthiazolyl-2)-2,5-diphenyltetrazolium bromide) by metabolically active cells forming purple formazan crystals. […]

COLO 205 = test system: COLO 205
Protocol: as §1, §2, §3, §4, §5, §6, §7

H460 = test system: H460
Protocol: as §1, §2, §3, §4, §5, §6, §7

MDA-MB-231 = test system: MDA-MB-231
Protocol: as §1, §2, §3, §4, §5, §6, §7

MIAPaCa-2 = test system: MIAPaCa-2
Protocol: as §1, §2, §3, §4, §5, §6, §7

[1] = MTT 24 hr post-treatment, read-out: IC50, Cisplatin (24 hr)
[2] = MTT 48 hr post-treatment, read-out: IC50, Cisplatin (48 hr)

N.N.[Cl][Pt][Cl] [Cisplatin, reference compound] showed an IC50 (BxPC-3; BxPC-3, MTT 24 hr post-treatment, read-out: IC50, Cisplatin (24 hr)) of 39.2 µM, an IC50 (BxPC-3; BxPC-3, MTT 48 hr post-treatment, read-out: IC50, Cisplatin (48 hr)) of 9.41 µM and an IC50 (BxPC-3; BxPC-3 repeat, MTT 24 hr post-treatment, read-out: IC50, Cisplatin (24 hr)) of 13.6 µM. The IC50 (BxPC-3; BxPC-3 repeat, MTT 48 hr post-treatment, read-out: IC50, Cisplatin (48 hr)) was 5.65 µM, the IC50 (COLO 205; [1]) was 58.5 µM and the IC50 (COLO 205; [2]) was 62.9 µM. It also gave an IC50 (H460; [1]) of 63.3 µM, an IC50 (H460; [2]) of 6.37 µM and an IC50 (MDA-MB-231; [1]) of 97.5 µM. For the same compound, the IC50 (MDA-MB-231; [2]) was 233 µM, the IC50 (MIAPaCa-2; [1]) was 43.9 µM and the IC50 (MIAPaCa-2; [2]) was 29.8 µM.
